IC50 data for 49 compounds are collected here from US8383637B2, “2-amino-quinazoline derivatives useful as inhibitors of β-secretase (BACE)” (Jansssen Pharmaceutica N.V., priority 2004, dated 2013).

This experiment addresses T1, β-secretase(BACE) (Homo sapiens, UniProt P56817).
T1 construct: purchased Panvera
As to the kind of experiment: BACE Assay-1 (MCA-substrate, IC50). Format: biochemical. To be noted: procedure of Example 158; read-out: IC50 μM (158). As to the method:
The following standards are reagents were used in this assay: Sodium Citrate trisodium salt dihydrate (Sigma), Citric Acid monohydrate (Merck), PEG8000 (Sigma), MCA-substrate (Bachem), β-secretase (BACE) (Panvera), 96-well plate zwart (Costar (Elscolab)), StatVal (Bachem).
The following standard assay buffer solution was prepared and used in this assay: 0.05 M, pH 5.0 mixture of sodium citrate trisodium salt dihydrate (9.56 g), citric acid monohydrate (3.68 g) and PEG8000 (0.50 g).
The MCA-substrate stock solution was prepared by mixing 10 mg MCA-substrate with 5 mL DMSO for a final solution concentration of 2.0 mg/mL. The substrate work solution was prepared by mixing 0.1 mL substrate in 1.90 mL assay buffer for a final concentration of 0.05 mM. The β-secretase (BACE) work solution was prepared by mixing 8 μL BACE in 2 mL assay buffer for a final concentration of 10 μg/mL.
The screen procedure for this assay was as follows. 60 μL of assay buffer was pippeted into each well of a 96-well plate. To each well was then pipetted 1 μL of test compound at the selected concentration. To each well was then added 20 μL of the β-secretase work solution and 20 μL of the MCA-substrate stock solution.
The procedure for the blank was as follows. 80 μL of assay buffer was pipetted into each well to be used as a blank control. To each well was then added 1 μL of DMSO and 20 μL of MCA-substrate solution in each well.
The procedure for the positive control was as follows. 60 μL of assay buffer was pipetted into each well to be used as a positive control. To each well was then added 1 μL of DMSO, 20 μL of BACE work solution and 20 μL of MCA-substrate stock solution.
For test compounds, measured at multiple concentrations, the measured T0 and T60 values were used to calculate an IC50 value using Graphpad Software (or PIR).

T1 sequence (P56817 46-501): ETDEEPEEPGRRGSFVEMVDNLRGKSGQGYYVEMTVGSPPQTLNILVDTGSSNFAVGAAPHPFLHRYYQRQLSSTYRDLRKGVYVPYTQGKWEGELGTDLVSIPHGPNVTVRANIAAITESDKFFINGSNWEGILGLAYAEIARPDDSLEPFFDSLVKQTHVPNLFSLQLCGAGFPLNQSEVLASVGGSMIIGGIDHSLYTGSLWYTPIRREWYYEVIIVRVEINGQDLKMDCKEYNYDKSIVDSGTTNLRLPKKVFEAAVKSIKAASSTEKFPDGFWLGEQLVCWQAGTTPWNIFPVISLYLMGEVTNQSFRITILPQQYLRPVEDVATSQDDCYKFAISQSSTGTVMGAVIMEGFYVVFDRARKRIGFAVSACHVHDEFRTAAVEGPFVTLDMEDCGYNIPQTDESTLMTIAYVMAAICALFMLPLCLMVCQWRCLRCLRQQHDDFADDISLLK

By IC50 is commonly meant the point on the concentration scale where inhibition reaches its midpoint. Regarding `CN(C(=O)CCN1Cc2cc(C(O)c3ccccc3)ccc2N=C1N)C1CCCCC1` (stereo not shown) [Compound 32, 3-[2-Amino-6-(hydroxy-phenyl-methyl)-4H-quinazolin-3-yl]-N-cyclohexyl-N-methyl-propionamide], the IC50 was 14 µM.
As for `CN(C(=O)CCN1Cc2ccc(C(=O)c3ccccc3)cc2N=C1N)C1CCCCC1` [Compound 35], the IC50 turned out to be 33 µM.
As for `CN(C(=O)CCN1Cc2cc(Cc3ccccc3)ccc2N=C1N)C1CCCCC1` [Compound 36, 3-(2-Amino-6-benzyl-4H-quinazolin-3-yl)-N-cyclohexyl-N-methyl-propionamide], the figure is 2.3 µM; as for `CN(C(=O)CCN1Cc2cc(-c3noc4cc(F)ccc34)ccc2N=C1N)C1CCCCC1` [Compound 37], 12 µM.
As to `NC1=Nc2ccc(C(=O)c3ccccc3)cc2CN1CCC(=O)N(C1CCCCC1)C1CCCCC1` [Compound 39], the IC50 is 1.3 µM.
Turning to `CN(CCc1ccccc1)C(=O)CCN1Cc2cc(C(=O)c3ccccc3)ccc2N=C1N` [Compound 40], the IC50 came to 9.8 µM.
For the compound `CN(C(=O)CCN1Cc2cc(C(=O)c3ccccc3)ccc2N=C1N)C12CC3CC(CC(C3)C1)C2` [Compound 41], the 50% inhibitory concentration (IC50) was 5.1 µM.
Turning to `CN(Cc1cccc2ccccc12)C(=O)CCN1Cc2cc(C(=O)c3ccccc3)ccc2N=C1N` [Compound 42], the IC50 is 15 µM.
Turning to `CN(Cc1ccccc1)C(=O)CCN1Cc2cc(C(=O)c3ccccc3)ccc2N=C1N` [Compound 43], the IC50 is 7.2 µM.
As for `CN(C(=O)CCN1Cc2cc(C(=O)c3ccccc3)ccc2N=C1N)C1CCCc2ccccc21` (stereo not shown) [Compound 45], the figure is 2.7 µM.
The figure for `CN(Cc1ccccc1)C(=O)CCCCN1Cc2cc(C(=O)c3ccccc3)ccc2N=C1N` [Compound 47] is 4.2 µM.
The figure for `CN(C(=O)CCCCN1Cc2cc(C(=O)c3ccccc3)ccc2N=C1N)C12CC3CC(CC(C3)C1)C2` [Compound 48] is 4 µM; for `CN(C(=O)CCCCN1Cc2cc(C(=O)c3ccccc3)ccc2N=C1N)C1CCCc2ccccc21` (stereo not shown) [Compound 54] it is 2.3 µM.
For the compound `CN(C1CCCCC1)S(=O)(=O)CCN1Cc2cc(C(=O)c3ccccc3)ccc2N=C1N` [Compound 57, 2-(2-Amino-6-benzoyl-4H-quinazolin-3-yl)-ethanesulfonic acid cyclohexyl-methyl-amide], the IC50 is 1.4 µM.
As for `CCCN1Cc2cc(Oc3cccc(NC(=O)c4ccccc4)c3)ccc2N=C1N` [Compound 60], the figure is 5.6 µM; as for `CN(C1CCCCC1)S(=O)(=O)CCN1Cc2cc(Oc3cccc(NC(=O)OCc4ccccc4)c3)ccc2N=C1N` [Compound 71], 2.6 µM.
`NC1=Nc2ccc(Oc3cccc(NC(=O)OCc4ccccc4)c3)cc2CN1CCCCC(=O)N(C1CCCCC1)C1CCCCC1` [Compound 75]: the IC50 came to 0.66 µM.
The figure for `NC1=Nc2ccc(Oc3cccc(NCC4CCCCC4)c3)cc2CN1CCCCO` [Compound 95] is 0.31 µM.
In the case of `CN(C(=O)CCCCN1Cc2cc(Oc3cccc(NCC4CCCCC4)c3)ccc2N=C1N)C1CCCCC1` [Compound 96], the IC50 came out at 0.78 µM.
The figure for `NC1=Nc2ccc(Oc3cccc(NS(=O)(=O)c4ccccc4)c3)cc2CN1CCCCO` [Compound 126] is 0.24 µM; for `CN(C(=O)CCCCN1Cc2cc(Oc3cccc(NC(=O)OCc4ccccc4)c3)ccc2N=C1N)C1CCCCC1` [Compound 133] it is 0.15 µM.
The figure for `CCCN1Cc2cc(OCc3cccc(NS(=O)(=O)c4ccccc4)c3)ccc2N=C1N` [Compound 203] is 4.7 µM; for `CCCN1Cc2cc(Oc3cccc(NS(C)(=O)=O)c3)ccc2N=C1N` [Compound 237] it is greater than 10 µM.
The figure for `CCCN1Cc2cc(Oc3cccc(NS(=O)(=O)C(C)C)c3)ccc2N=C1N` [Compound 238] is 8.9 µM; for `CCCCS(=O)(=O)Nc1cccc(Oc2ccc3c(c2)CN(CCC)C(N)=N3)c1` [Compound 239] it is 0.35 µM.
As for `CCCN1Cc2cc(Oc3cccc(NS(=O)(=O)c4ccsc4)c3)ccc2N=C1N` [Compound 240], the IC50 stood at 0.89 µM.
The figure for `CCCN1Cc2cc(Oc3cccc(NS(=O)(=O)c4cccs4)c3)ccc2N=C1N` [Compound 241] is 0.49 µM.
As for `CCCN1Cc2cc(Oc3cccc(NS(=O)(=O)c4c(C)noc4C)c3)ccc2N=C1N` [Compound 242], the figure is greater than 10 µM; as for `CCCN1Cc2cc(Oc3cccc(NS(=O)(=O)c4c(C)cc(C)cc4C)c3)ccc2N=C1N` [Compound 243], 0.033 µM.
The figure for `CCCN1Cc2cc(Oc3cccc(NS(=O)(=O)c4ccc5ccccc5c4)c3)ccc2N=C1N` [Compound 244] is 2.1 µM; for `CCCN1Cc2cc(Oc3cccc(NS(=O)(=O)c4csc5ccccc45)c3)ccc2N=C1N` [Compound 245] it is 0.17 µM.
Turning to `CCCN1Cc2cc(Oc3cccc(NS(=O)(=O)c4ccc(NC(C)=O)cc4)c3)ccc2N=C1N` [Compound 246], the IC50 was greater than 10 µM.
On to `CCCN1Cc2cc(Oc3cccc(NS(=O)(=O)c4cc(OC)ccc4OC)c3)ccc2N=C1N` [Compound 248], for which the IC50 worked out at 6.9 µM.
As for `CCCN1Cc2cc(Oc3cccc(NS(=O)(=O)c4ccc(OC)c(OC)c4)c3)ccc2N=C1N` [Compound 249], the figure is 5.2 µM.
With `CCCN1Cc2cc(Oc3cccc(NS(=O)(=O)c4ccccc4S(C)(=O)=O)c3)ccc2N=C1N` [Compound 250], the IC50 was greater than 10 µM.
The figure for `CCCN1Cc2cc(Oc3cccc(NS(=O)(=O)c4ccc(-c5ccccn5)s4)c3)ccc2N=C1N` [Compound 251] is greater than 10 µM.
The figure for `CCCN1Cc2cc(Oc3cccc(NS(=O)(=O)c4cccc(OC(F)(F)F)c4)c3)ccc2N=C1N` [Compound 252] is 1 µM; for `CCCN1Cc2cc(Oc3cccc(NS(=O)(=O)c4cccc5c(N(C)C)cccc45)c3)ccc2N=C1N` [Compound 253] it is greater than 10 µM; for `CCCN1Cc2cc(Oc3cccc(NS(=O)(=O)c4ccc(-c5csc(C)n5)s4)c3)ccc2N=C1N` [Compound 254] it is greater than 10 µM.
The figure for `CCCN1Cc2cc(Oc3cccc(NS(=O)(=O)c4ccc(-c5cc(C(F)(F)F)on5)s4)c3)ccc2N=C1N` [Compound 255] is greater than 10 µM; for `CCCN1Cc2cc(Oc3cccc(NS(=O)(=O)Cc4ccccc4)c3)ccc2N=C1N` [Compound 269] it is 0.35 µM; for `CCCN1Cc2cc(Oc3cccc(NS(=O)(=O)c4cccc(C#N)c4)c3)ccc2N=C1N` [Compound 270] it is 2.37 µM.
Turning to `CCCN1Cc2cc(Oc3cccc(NS(=O)(=O)c4cccc(OC)c4)c3)ccc2N=C1N` [Compound 271], the IC50 was 0.39 µM.
As to `CCCN1Cc2cc(Oc3cccc(NS(=O)(=O)c4ccc(OC)cc4)c3)ccc2N=C1N` [Compound 272], the IC50 was determined as 0.52 µM.
As for `CCCN1Cc2cc(Oc3cccc(NS(=O)(=O)c4ccc(C)cc4OC)c3)ccc2N=C1N` [Compound 273], the figure is 0.17 µM; as for `CCCN1Cc2cc(Oc3cccc(NS(=O)(=O)c4cccc5ccccc45)c3)ccc2N=C1N` [Compound 274], greater than 10 µM.
With `CCCN1Cc2cc(Oc3cccc(NS(=O)(=O)c4ccc5c(c4)OCCO5)c3)ccc2N=C1N` [Compound 275], the IC50 was greater than 10 µM.
For `CCCN1Cc2cc(Oc3cccc(NS(=O)(=O)c4ccsc4C(=O)OC)c3)ccc2N=C1N` [Compound 276], the IC50 is greater than 10 µM.
The figure for `CCCN1Cc2cc(Oc3cccc(NS(=O)(=O)c4ccccc4C(F)(F)F)c3)ccc2N=C1N` [Compound 277] is 0.7 µM.
